Test results published in patent US10351500B2, “Method of using of dihydro-resveratrol or its stilbenoid derivatives and/or chemical variants as antimicrobial agents” (Hong Kong Baptist University, priority 2015, dated 2019).

Key:
[1] = test system: pancreatic acinar cells; type: cell-based; details: rat, 24 h
Experimental: Functional intact acini were dissociated from pancreatic tissue using collagenase digestion with mild shearing forces. Acini were cultured in Dulbecco's modification of Eagle's medium (GIBCO) supplemented with 5% fetal bovine serum (GIBCO), 1% penicillin-streptomycin (GIBCO) in a 5% CO2, 95% air humidified atmosphere at 37° C. […] MTT reagent was added to the cells at the end of the 24-hour treatment period. After a 3-hour reaction time, MTT products were dissolved in DMSO and absorbance at 570 nm was taken.

[2] = test system: Trichophyton mentagrophytes; assay: anti-fungal growth inhibition, T. mentagrophytes; type: cell-based; details: Trichophyton mentagrophytes, 168 h, T. mentagraphytes, one week, 30° C., OD 510 nm
Experimental: (§1) Evaluation of anti-fungal activity. In a single well of the 96-well microplate, 10 μL of the testing compound is added into 190 μL of growth medium (Difco™ YM) containing an overnight culture of Trichophyton rubrum or Trichophyton mentagrophytes at a density of approximately 5×10^5 CFU. The testing compounds include dihydro-resveratrol and DR1 to DR11. Wells incubated with 10 μL 0.5% DMSO only (i.e. no testing compound) are served as the experimental control of fungal growth whilst those incubated with growth medium only (i.e. no fungi) are served as the negative control. […] The percentage of growth inhibition of T. mentagrophytes by the different concentrations of testing compounds is shown in Table 10 whilst the percentage of growth inhibition of T. rubrum is shown in Table 11. The images of T. mentagrophytes culture are captured post treatment of dihydro-resveratrol (100 μM) and DR8 (100 μM) when compared to the growth of experimental control and negative control (FIG. 30).

[3] = test system: skin color at the arms of individual human subjects; assay: skin colorimeter ITA° measurement after topical stilbenoid solution; type: in vivo
Experimental: To determine the skin color of the individual human subjects, the initial skin conditions at the arms of the individuals are tested by the skin colorimeter MPA 5 on day 0. The individual typology angle (ITA°) is calculated by the colorimeter based on the luminance (L*) and yellow-blue component (b*) values. The greater the ITA° value, the greater the skin whiteness [S. Del Bino and F. Bernerd. Variations in skin colour and the biological consequences of ultraviolet radiation exposure. British Journal of Dermatology 2013; 169 (Suppl. 3), 33-40]. In fact, skin colors are classified into 6 major divisions: very light, light, intermediate, tan, brown and dark as listed in Table 4. Two areas (2 cm×2 cm each) are selected as treated areas whereas regions surrounding the treated areas on the arms are regarded as control areas. A volume of 200 μL of the testing stilbenoids (2% by weight dissolved in ethanol) is applied to the designated area twice a day, day and night. At the end of the first week (day 7), individuals are tested with the skin colorimeter for recording the data about using the stilbenoids for 7 days. Again, at the end of the second week (day 14), individuals are tested with the skin colorimeter for recording the data about using the stilbenoids for 14 days.

[4] = test system: Trichophyton rubrum; assay: anti-fungal growth inhibition, T. rubrum; type: cell-based; details: Trichophyton rubrum, 168 h, T. rubrum, one week, 30° C., OD 510 nm
Experimental: as §1

[5] = test system: Streptococcus mutans; assay: anti-bacterial growth inhibition, S. mutans; type: cell-based; details: Streptococcus mutans, S. mutans, 10 hours, 30° C., OD 600 nm
Experimental: (§2) Evaluation of anti-bacterial activity. In a single well of the 96-well microplate, 10 μL of the testing compound is added into 190 μL of growth medium growth medium (BBL™ Brain Heart Infusion) containing an overnight culture of Streptococcus mutans or Streptococcus sobrinus at a density of approximately 5×10^5 CFU. The testing compounds include dihydro-resveratrol and DR1 to DR11. Wells incubated with 10 μL 0.5% DMSO only (i.e. no testing compound) are served as the experimental control of bacterial growth whilst those incubated with growth medium only (i.e. no bacteria) are served as the negative control. […] The percentage of growth inhibition of S. mutans by the different concentrations of testing compounds is shown in Table 12 whereas the percentage of growth inhibition of S. sobrinus is shown in Table 13. The images of S. mutans culture are captured post treatment of dihydro-resveratrol (100 μM) and DR8 (100 μM) when compared to the growth of experimental control and negative control (FIG. 31).

[6] = test system: Streptococcus sobrinus; assay: anti-bacterial growth inhibition, S. sobrinus; type: cell-based; details: Streptococcus sobrinus, S. sobrinus, 10 hours, 30° C., OD 600 nm
Experimental: as §2

[7] = 25 μM, read-out: Inhibition rate (25 μM)
[8] = 50 μM, read-out: Inhibition rate (50 μM)
[9] = 100 μM, read-out: Inhibition rate (100 μM)

Oc1ccc(/C=C/c2cc(O)cc(O)c2)cc1 [Trans-resveratrol, trans-resveratrol, reference compound]
cytotoxicity (MTT, mitochondrial metabolic rates) [1]: roughly 250 μM | inhibition at 25 µM [2, 7]: 5.35% | inhibition at 50 µM [2, 8]: 13.9% | inhibition at 100 µM [2, 9]: 32.4% | whitening effect on skin ([3]; 2% by weight in ethanol, topical twice a day, most individuals): Overt whitening effect | ITA° measurement ([3]; Individual No. 1, day 7, 2% solution topical): 47.7 ± 1.155 ° | ITA° measurement ([3]; Individual No. 1, day 14, 2% solution topical): 46.4 ± 0.548 ° | ITA° measurement ([3]; Individual No. 2, day 7, 2% solution topical): 39.2 ± 2.564 ° | ITA° measurement ([3]; Individual No. 2, day 14, 2% solution topical): 44.8 ± 2.871 ° | ITA° measurement ([3]; Individual No. 3, day 7, 2% solution topical): 38.0 ± 1.732 ° | ITA° measurement ([3]; Individual No. 3, day 14, 2% solution topical): 36.2 ± 1.789 ° | ITA° measurement ([3]; Individual No. 4, day 7, 2% solution topical): 22.4 ± 1.715 ° | ITA° measurement ([3]; Individual No. 4, day 14, 2% solution topical): 29.4 ± 1.342 ° | ITA° measurement ([3]; Individual No. 5, day 7, 2% solution topical): 26.6 ± 1.159 ° | ITA° measurement ([3]; Individual No. 5, day 14, 2% solution topical): 34.0 ± 2.168 ° | ITA° measurement ([3]; Individual No. 6, day 7, 2% solution topical): 28.2 ± 2.718 ° | ITA° measurement ([3]; Individual No. 6, day 14, 2% solution topical): 41.8 ± 3.372 ° | ITA° measurement ([3]; Individual No. 7, day 7, 2% solution topical): 20.6 ± 1.140 ° | ITA° measurement ([3]; Individual No. 7, day 14, 2% solution topical): 20.4 ± 0.578 ° | ITA° measurement ([3]; Individual No. 8, day 7, 2% solution topical): 14.0 ± 1.232 ° | ITA° measurement ([3]; Individual No. 8, day 14, 2% solution topical): 9.6 ± 1.342 ° | ITA° measurement ([3]; Individual No. 9, day 7, 2% solution topical): −7.2 ± 1.789 ° | ITA° measurement ([3]; Individual No. 9, day 14, 2% solution topical): −7.4 ± 1.140 ° | inhibition at 25 µM [4, 7]: 6.56% | inhibition at 50 µM [4, 8]: 11.6% | inhibition at 100 µM [4, 9]: 21.6% | inhibition at 25 µM [5, 7]: 8.91% | inhibition at 50 µM [5, 8]: 5.77% | inhibition at 100 µM [5, 9]: 3.83% | inhibition at 25 µM [6, 7]: 6.71% | inhibition at 50 µM [6, 8]: 1.17% | inhibition at 100 µM [6, 9]: 2.46%
